Experiments:
[1] = biological target: Glucagon-like peptide 1 receptor (Homo sapiens, UniProt P43220); assay: Agonist activity at human GLP-1R expressed in HEK293 cells coexpressing CRE LUC incubated for 5 hrs by luciferase based microplate reader analysis; assay type: functional, cell-based
[2] = Tmax in Sprague-Dawley rat at 10 mg/kg, po measured up to 24 hrs by LC-MS/MS analysis; assay type: ADME, organism-based; details: in vivo
[3] = Metabolic stability in human liver microsomes assessed as hepatic clearance at 1 uM measured after 5 to 45 mins in presence of NADPH by LC-MS/MS analysis; assay type: ADME, Microsome; details: time 5-45 min
Cytochrome P450 2C19 = Cytochrome P450 2C19 (Homo sapiens, UniProt P33261); assay: Inhibition of CYP2C19 in human liver microsomes incubated for 45 mins in presence of NADPH by LC-MS/MS analysis; assay type: ADME, Microsome
Cytochrome P450 2C19, sequence (P33261 whole entry): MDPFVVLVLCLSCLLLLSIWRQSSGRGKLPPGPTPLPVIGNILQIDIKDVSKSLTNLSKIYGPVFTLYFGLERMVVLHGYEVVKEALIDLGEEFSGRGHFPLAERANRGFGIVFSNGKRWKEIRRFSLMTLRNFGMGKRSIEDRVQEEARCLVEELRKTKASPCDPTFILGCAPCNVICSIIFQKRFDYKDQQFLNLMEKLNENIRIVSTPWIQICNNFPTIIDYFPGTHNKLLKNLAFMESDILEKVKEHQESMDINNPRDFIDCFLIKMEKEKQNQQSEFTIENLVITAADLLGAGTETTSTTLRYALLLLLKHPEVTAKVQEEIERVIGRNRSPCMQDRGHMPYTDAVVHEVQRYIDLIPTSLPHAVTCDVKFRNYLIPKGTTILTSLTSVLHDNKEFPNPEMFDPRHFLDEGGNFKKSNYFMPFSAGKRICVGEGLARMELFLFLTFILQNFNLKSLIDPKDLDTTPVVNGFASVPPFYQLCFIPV

Cytochrome P450 2C9 = Cytochrome P450 2C9 (Homo sapiens, UniProt P11712); assay: Inhibition of CYP2C9 in human liver microsomes incubated for 10 mins in presence of NADPH by LC-MS/MS analysis; assay type: ADME, Microsome
Cytochrome P450 2C9, sequence (P11712 whole entry): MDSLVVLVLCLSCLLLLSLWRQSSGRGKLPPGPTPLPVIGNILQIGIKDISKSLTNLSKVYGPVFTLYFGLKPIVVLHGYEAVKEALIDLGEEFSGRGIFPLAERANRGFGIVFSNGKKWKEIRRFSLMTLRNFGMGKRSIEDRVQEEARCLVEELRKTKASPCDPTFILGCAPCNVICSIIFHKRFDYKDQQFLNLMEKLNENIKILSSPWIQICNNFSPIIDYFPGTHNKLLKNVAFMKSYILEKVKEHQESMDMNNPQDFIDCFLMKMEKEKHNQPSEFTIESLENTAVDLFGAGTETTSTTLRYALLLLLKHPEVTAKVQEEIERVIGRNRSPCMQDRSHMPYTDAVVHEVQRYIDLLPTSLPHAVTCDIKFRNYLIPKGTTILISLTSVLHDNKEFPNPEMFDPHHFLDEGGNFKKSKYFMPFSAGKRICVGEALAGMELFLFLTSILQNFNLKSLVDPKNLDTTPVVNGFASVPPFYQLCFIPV

[4] = AUC last in Sprague-Dawley rat at 10 mg/kg, po measured up to 24 hrs by LC-MS/MS analysis; assay type: ADME, organism-based; details: in vivo
Cytochrome P450 2B6 = biological target: T1, Cytochrome P450 2B6 (Homo sapiens, UniProt P20813); assay: Inhibition of CYP2B6 in human liver microsomes incubated for 10 mins in presence of NADPH by LC-MS/MS analysis; assay type: ADME, Microsome
T1 sequence (P20813 whole entry): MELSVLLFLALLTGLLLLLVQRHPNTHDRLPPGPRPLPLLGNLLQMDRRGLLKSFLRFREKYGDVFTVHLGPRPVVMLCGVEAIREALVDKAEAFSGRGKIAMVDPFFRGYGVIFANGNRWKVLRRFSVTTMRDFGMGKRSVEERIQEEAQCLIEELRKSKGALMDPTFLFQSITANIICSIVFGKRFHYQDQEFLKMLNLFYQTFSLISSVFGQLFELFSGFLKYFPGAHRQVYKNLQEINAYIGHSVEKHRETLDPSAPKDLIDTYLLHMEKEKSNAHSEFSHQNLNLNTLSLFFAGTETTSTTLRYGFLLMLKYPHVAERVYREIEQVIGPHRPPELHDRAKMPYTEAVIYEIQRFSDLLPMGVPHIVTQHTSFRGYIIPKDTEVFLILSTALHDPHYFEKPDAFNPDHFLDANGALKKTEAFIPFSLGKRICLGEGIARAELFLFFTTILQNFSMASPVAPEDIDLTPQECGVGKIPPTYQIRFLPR

[5] = Metabolic stability in human liver microsomes assessed as intrinsic clearance at 1 uM measured after 5 to 45 mins in presence of NADPH by LC-MS/MS analysis; assay type: ADME, Microsome; details: time 5-45 min, read-out: CLH
Cytochrome P450 2C8 = biological target: T2, Cytochrome P450 2C8 (Homo sapiens, UniProt P10632); assay: Inhibition of CYP2C8 in human liver microsomes incubated for 20 mins in presence of NADPH by LC-MS/MS analysis; assay type: ADME, Microsome
T2 sequence (P10632 whole entry): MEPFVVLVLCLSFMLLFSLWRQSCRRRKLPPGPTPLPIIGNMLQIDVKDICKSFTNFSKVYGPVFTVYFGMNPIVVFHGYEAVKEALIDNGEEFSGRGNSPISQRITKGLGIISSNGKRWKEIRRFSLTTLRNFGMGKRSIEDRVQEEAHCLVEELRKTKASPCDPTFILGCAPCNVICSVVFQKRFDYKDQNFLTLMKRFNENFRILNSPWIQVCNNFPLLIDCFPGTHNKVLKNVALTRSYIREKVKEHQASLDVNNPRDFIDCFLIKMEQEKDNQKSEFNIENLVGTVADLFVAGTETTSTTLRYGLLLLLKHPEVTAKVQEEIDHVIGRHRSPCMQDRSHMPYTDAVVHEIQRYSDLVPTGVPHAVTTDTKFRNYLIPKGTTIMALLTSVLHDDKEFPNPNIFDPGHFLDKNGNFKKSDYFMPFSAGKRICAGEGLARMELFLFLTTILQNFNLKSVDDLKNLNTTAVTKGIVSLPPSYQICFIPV

[6] = Cmax in Sprague-Dawley rat at 10 mg/kg, po measured up to 24 hrs by LC-MS/MS analysis; assay type: ADME, organism-based; details: in vivo
Cytochrome P450 3A4 = Cytochrome P450 3A4 (Homo sapiens, UniProt P08684); assay: Inhibition of CYP3A4 in human liver microsomes using testosterone as substrate incubated for 5 mins in presence of NADPH by LC-MS/MS analysis; assay type: ADME, Microsome
Cytochrome P450 3A4, sequence (P08684 whole entry): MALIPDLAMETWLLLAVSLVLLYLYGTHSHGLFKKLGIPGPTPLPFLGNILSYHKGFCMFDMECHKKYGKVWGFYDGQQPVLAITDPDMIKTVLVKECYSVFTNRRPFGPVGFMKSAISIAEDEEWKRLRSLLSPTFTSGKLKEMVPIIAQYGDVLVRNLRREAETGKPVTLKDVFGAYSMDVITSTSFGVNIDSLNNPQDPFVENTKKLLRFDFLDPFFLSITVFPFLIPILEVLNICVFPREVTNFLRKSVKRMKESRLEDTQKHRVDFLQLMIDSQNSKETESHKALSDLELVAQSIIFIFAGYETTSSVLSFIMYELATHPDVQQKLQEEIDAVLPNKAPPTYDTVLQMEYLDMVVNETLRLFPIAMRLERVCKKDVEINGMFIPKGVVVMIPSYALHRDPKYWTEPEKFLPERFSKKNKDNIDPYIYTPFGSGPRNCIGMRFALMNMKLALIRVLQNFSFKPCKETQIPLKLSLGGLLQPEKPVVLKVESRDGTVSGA

Cytochrome P450 1A2 = biological target: T3, Cytochrome P450 1A2 (Homo sapiens, UniProt P05177); assay: Inhibition of CYP1A2 in human liver microsomes incubated for 10 mins in presence of NADPH by LC-MS/MS analysis; assay type: ADME, Microsome
T3 sequence (P05177 whole entry): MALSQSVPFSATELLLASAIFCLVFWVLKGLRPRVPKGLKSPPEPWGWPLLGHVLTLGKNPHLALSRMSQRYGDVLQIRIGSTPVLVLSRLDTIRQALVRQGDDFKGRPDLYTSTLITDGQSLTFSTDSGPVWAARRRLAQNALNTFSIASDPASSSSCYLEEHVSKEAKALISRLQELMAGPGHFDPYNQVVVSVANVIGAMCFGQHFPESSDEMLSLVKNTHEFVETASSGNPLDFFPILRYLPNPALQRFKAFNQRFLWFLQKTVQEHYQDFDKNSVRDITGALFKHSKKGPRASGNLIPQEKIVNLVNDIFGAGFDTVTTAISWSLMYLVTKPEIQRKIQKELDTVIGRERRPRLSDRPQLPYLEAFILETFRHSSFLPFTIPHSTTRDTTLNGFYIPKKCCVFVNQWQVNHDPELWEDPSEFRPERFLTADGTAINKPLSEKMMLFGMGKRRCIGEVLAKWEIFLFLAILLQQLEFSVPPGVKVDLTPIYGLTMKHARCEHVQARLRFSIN

[7] = Metabolic stability in human liver microsomes assessed as half life at 1 uM measured after 5 to 45 mins in presence of NADPH by LC-MS/MS analysis; assay type: ADME, Microsome; details: time 5-45 min
Cytochrome P450 2D6 = Cytochrome P450 2D6 (Homo sapiens, UniProt P10635); assay: Inhibition of CYP2D6 in human liver microsomes incubated for 20 mins in presence of NADPH by LC-MS/MS analysis; assay type: ADME, Microsome
Cytochrome P450 2D6, sequence (P10635 whole entry): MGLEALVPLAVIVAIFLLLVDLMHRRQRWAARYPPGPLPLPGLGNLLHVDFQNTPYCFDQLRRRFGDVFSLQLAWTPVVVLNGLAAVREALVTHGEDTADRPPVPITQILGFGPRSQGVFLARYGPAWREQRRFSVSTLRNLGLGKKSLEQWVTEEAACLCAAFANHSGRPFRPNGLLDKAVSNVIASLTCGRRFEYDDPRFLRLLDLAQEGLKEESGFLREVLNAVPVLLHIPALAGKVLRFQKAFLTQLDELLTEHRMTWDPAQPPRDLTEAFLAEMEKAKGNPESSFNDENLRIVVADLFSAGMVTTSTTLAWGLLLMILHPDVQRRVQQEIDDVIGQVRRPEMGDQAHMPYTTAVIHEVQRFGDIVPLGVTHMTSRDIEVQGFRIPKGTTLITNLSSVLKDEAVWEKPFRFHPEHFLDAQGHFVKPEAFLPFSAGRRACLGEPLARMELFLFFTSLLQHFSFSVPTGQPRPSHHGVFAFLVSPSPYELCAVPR

Glucagon-like peptide 1 receptor, sequence (P43220 whole entry): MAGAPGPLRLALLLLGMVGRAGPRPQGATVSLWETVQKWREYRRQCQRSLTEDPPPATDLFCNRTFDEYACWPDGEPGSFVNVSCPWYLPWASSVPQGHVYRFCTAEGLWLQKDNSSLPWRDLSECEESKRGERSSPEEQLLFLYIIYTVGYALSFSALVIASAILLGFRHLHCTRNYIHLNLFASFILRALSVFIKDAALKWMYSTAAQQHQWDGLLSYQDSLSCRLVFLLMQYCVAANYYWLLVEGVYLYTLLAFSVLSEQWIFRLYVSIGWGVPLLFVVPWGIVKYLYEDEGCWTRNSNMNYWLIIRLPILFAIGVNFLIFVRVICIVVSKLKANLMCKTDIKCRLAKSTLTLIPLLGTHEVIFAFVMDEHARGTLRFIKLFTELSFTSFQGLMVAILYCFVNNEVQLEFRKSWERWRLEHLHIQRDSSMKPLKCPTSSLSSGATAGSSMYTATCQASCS

Cn1ccc2ccc(COc3cccc(-c4ccc(Cc5nc6ccc(C(=O)O)cc6n5C[C@@H]5CCO5)c(F)c4)n3)cc21
EC50 [1]: 0.198 µM

COCCn1c(Cc2ccc(-c3cccc(OCc4ccc(Cl)c5ccoc45)n3)cc2F)nc2ccc(C(=O)O)cc21
EC50 [1]: 0.359 µM

Cc1cc(-c2cccc(OCc3ccc(C#N)cc3F)n2)ccc1Cc1nc2ccc(C(=O)O)cc2n1C[C@@H]1CCO1
EC50 [1]: 0.0135 µM

N#Cc1ccc(COc2cccc(N3CCC(Cc4nc5ccc(C(=O)O)cc5n4C[C@@H]4CCO4)CC3)n2)c(F)c1
EC50 [1]: 0.0855 µM

N#Cc1ccc(COc2cccc(C3CCN(Cc4nc5ccc(C(=O)O)cc5n4C[C@@H]4CCO4)CC3)n2)c(F)c1 [DANUGLIPRON]
Tmax [2]: 0.63 h | CLhep predicted at 1 µM [3]: 9.04 mL/min/kg | IC50 (Cytochrome P450 2C19): > 30 µM | IC50 (Cytochrome P450 2C9): > 30 µM | AUC(0-t) at 24 h [4]: 714 ng·h/mL | IC50 (Cytochrome P450 2B6): > 30 µM | CLint scaled at 1 µM [5]: 16 mL/min/kg | IC50 (Cytochrome P450 2C8): 3.34 µM | Cmax [6]: 197 ng/mL | IC50 (Cytochrome P450 3A4): > 30 µM | IC50 (Cytochrome P450 1A2): > 30 µM | half-life at 1 µM [7]: 1.8 h | IC50 (Cytochrome P450 2D6): > 30 µM

From ChEMBL document CHEMBL6134892, “Discovery and Evaluation of DA-302168S as an Efficacious Oral Small-Molecule Glucagon-Like Peptide-1 Receptor Agonist” (J Med Chem, 2025)
